Reference: patent US10385072B2, “Gold(III) complexes as anticancer agents and a method of treating cancer” (King Fahd University of Petroleum and Minerals, priority 2017, dated 2019)

Legend:
Assay type in all cases: cell-based, human
A2780 cells = assay: Cell proliferation assay (MTT/MTS), A2780; details: 72-120 h, MTT or MTS, mean±SEM
Source text: (§1) Hodgkin's lymphoma cell line (L-540) and human androgen-resistant prostate cancer cell line (PC3) were obtained from the German Collection of Microorganisms and Cell Cultures (Braunschweig, Germany). Human breast adenocarcinoma cell line MCF-7 cell line (HTB-22™) was obtained from the American Type Culture Collection (ATCC, Rockville, Md., USA). Human ovarian epithelial carcinoma-derived cancer cells A2780 and its cisplatin-resistant clone A2780cis were from Sigma Inc (St. Louis, Mo., USA), and the isogenic cisplatin-resistant 2780CP-16 cells were cultured as previously described (Siddik, Z. H.; Mims, B.; Lozano, G.; Thai, G. Independent pathways of p53 induction by cisplatin and X-rays in a cisplatin-resistant ovarian tumor cell line. Cancer Res. 1998, 58, 698-703, incorporated herein by reference in its entirety). A panel of non-small cell lung cancer (NSCLC) cell lines (H460, A549, H226, H838, H157, H1975, H2122, SKLU1 and H1299) was obtained from Dr. Garth Powis at MD Anderson Cancer Center. […]
(§2) PC3 and MCF-7 cells (2.5×10^3), A2780, A2780cis (4.0×10^3), A2780CP-16 and lung cancer cells (H460, A549, H226, H838, H157, H1975, H2122, SKLU1 and H1299) were seeded in 96-well flat-bottomed microplates (100 μL) and incubated for 24 h (to allow cell adhesion) before drug testing. […] After treatment, cell proliferation was evaluated by the MTS assay (Promega). […]

[1] = test system: cisplatin-resistant A2780cis cells; assay: Cell proliferation assay (MTT/MTS), A2780cis; details: for IC50: cisplatin-resistant A2780cis cells, 72-120 h, MTT or MTS, mean±SEM
Source text: Hodgkin's lymphoma cell line (L-540) and human androgen-resistant prostate cancer cell line (PC3) were obtained from the German Collection of Microorganisms and Cell Cultures (Braunschweig, Germany). Human breast adenocarcinoma cell line MCF-7 cell line (HTB-22™) was obtained from the American Type Culture Collection (ATCC, Rockville, Md., USA). Human ovarian epithelial carcinoma-derived cancer cells A2780 and its cisplatin-resistant clone A2780cis were from Sigma Inc (St. Louis, Mo., USA), and the isogenic cisplatin-resistant 2780CP-16 cells were cultured as previously described (Siddik, Z. H.; Mims, B.; Lozano, G.; Thai, G. Independent pathways of p53 induction by cisplatin and X-rays in a cisplatin-resistant ovarian tumor cell line. Cancer Res. 1998, 58, 698-703, incorporated herein by reference in its entirety). A panel of non-small cell lung cancer (NSCLC) cell lines (H460, A549, H226, H838, H157, H1975, H2122, SKLU1 and H1299) was obtained from Dr. Garth Powis at MD Anderson Cancer Center. Cell lines were further authenticated for their origin by BMR Genomics according to Cell ID System (Promega) protocol and using Genemapper ID Ver 3.2.1 to identify DNA short tandem repeat profiles. The […] cisplatin-resistant subclone (A2780cis) was maintained by weekly treatment with 1 μM cisplatin (Casagrande, N.; Celegato, M.; Borghese, C.; Mongiat, M.; Colombatti, A.; Aldinucci, D. Preclinical activity of the liposomal cisplatin Lipoplatin in ovarian cancer. Clin. Cancer Res. 2014, 20(21), 5496-5506, incorporated herein by reference in its entirety).
Cells were cultured in 5% CO2 in RPMI (for L-540, A2780, A2780cis, 2780CP-16, PC3 and the panel of lung cancer cells) or DMEM (for MCF-7 cells) media supplemented with 10% heat-inactivated fetal calf serum (FCS; Sigma-Aldrich-Italy), 0.2 mg/ml penicillin/streptomycin and 0.1% (w/v) L-gluamine (Biocrom) at 37° C. in a 5% CO2 fully humidified atmosphere.
(§3) Gold(III) compounds were dissolved in DMSO (final concentration of the gold(III) complexes was 10 mM) and stored at −80° C. in volumes of 500 μL or aliquoted into volumes of 10 μL and stored at −20° C. (used once without refreezing). They were then diluted in RPMI medium immediately before use. The culture medium with the same amount of drug-free DMSO was used as negative control.
as §2

MCF-7 cells = assay: Cell proliferation assay (MTT/MTS), MCF-7; details: 72-120 h, MTT or MTS, mean±SEM
Source text: as §1, §2

PC3 cells = assay: Cell proliferation assay (MTT/MTS), PC3; details: 72-120 h, MTT or MTS, mean±SEM
Source text: as §1, §2

L-540 cells = assay: Cell proliferation assay (MTS), L-540; details: mean±SEM
Source text: as §1, §2

[2] = test system: cisplatin-resistant 2780CP cells; assay: Cell proliferation assay, 2780CP-16; details: 2780CP versus A2780
Source text: Hodgkin's lymphoma cell line (L-540) and human androgen-resistant prostate cancer cell line (PC3) were obtained from the German Collection of Microorganisms and Cell Cultures (Braunschweig, Germany). Human breast adenocarcinoma cell line MCF-7 cell line (HTB-22™) was obtained from the American Type Culture Collection (ATCC, Rockville, Md., USA). […]
(§4) PC3 and MCF-7 cells (2.5×10^3), A2780, A2780cis (4.0×10^3), A2780CP-16 and lung cancer cells (H460, A549, H226, H838, H157, H1975, H2122, SKLU1 and H1299) were seeded in 96-well flat-bottomed microplates (100 μL) and incubated for 24 h (to allow cell adhesion) before drug testing. […] After treatment, cell proliferation was evaluated by the MTS assay (Promega). […] The dependency of the anticancer activity of the gold(III) compounds on the type of p53 or the absence of p53 was assessed in A2780 cells following p53 knockdown by CRISPR (Cong, L.; Ran, F. A.; Cox, D.; Lin, S.; Barretto, R.; Habib, N.; Hsu, P. D.; Wu, X.; Jiang, W.; Marraffini, L. A.; Zhang, F. Multiplex genome engineering using CRISPR/Cas systems Science. 2013, 15; 339 (6121), 819-23, incorporate herein by reference in its entirety). […]

[3] = test system: NSCLC cell lines (H460, A549, H226, H838, H157, H1975, H2122, SKLU1 and H1299); assay: Cell proliferation assay, NSCLC panel grouped by p53 status; details: range over the NSCLC panel (WT-, Mut- and Null-p53)
Source text: as §1, §2

A549 cells = assay: Dose-response curves in A549 cells; details: 5 days after contacting
Protocol: as §3
as §4, with “testing. The medium was then removed and replaced with fresh medium which separately contained cisplatin and the gold(III) compounds 1 to 9 at increasing concentrations (from 0.01 to 100 μM) at 37° C. for 72-120 h.” for “testing.”

[4] = test system: WT-p53 A2780 ovarian cancer cells (CRISPR Control); assay: MTT assay, A2780 transfected with CRISPR control plasmid; details: A2780 clone with control plasmid
Protocol: as §4, with “testing. The medium was then removed and replaced with fresh medium which separately contained cisplatin and the gold(III) compounds 1 to 9 at increasing concentrations (from 0.01 to 100 μM) at 37° C. for 72-120 h. Each treatment was performed in triplicate. Cell proliferation was assayed using the MTT assay or the MTS assay.” for “testing.”

[5] = test system: A2780 ovarian cancer cells (CRISPR p53 KO); assay: MTT assay, A2780 with p53 knocked out by CRISPR/Cas9; details: A2780 clone with p53 knocked out
Protocol: as §4, with “testing. The medium was then removed and replaced with fresh medium which separately contained cisplatin and the gold(III) compounds 1 to 9 at increasing concentrations (from 0.01 to 100 μM) at 37° C. for 72-120 h. Each treatment was performed in triplicate. Cell proliferation was assayed using the MTT assay or the MTS assay.” for “testing.”

[6] = test system: L-540, PC3, MCF-7, A2780 and A2780cis cell lines; assay: In vitro cytotoxicity across the cell line panel, compared with cisplatin; details: all cell lines tested
Protocol: as §4, with “testing. The medium was then removed and replaced with fresh medium which separately contained cisplatin and the gold(III) compounds 1 to 9 at increasing concentrations (from 0.01 to 100 μM) at 37° C. for 72-120 h. Each treatment was performed in triplicate. Cell proliferation was assayed using the MTT assay or the MTS assay.” for “testing.”

In the case of “cis-[Pt(NH3)2Cl2] [Cisplatin, reference compound]”, the IC50 (A2780 cells) is reported as 1500 ± 100 nM, the “fold higher IC50 in A2780cis than in A2780” value ([1]; A2780cis versus A2780) is reported as “about 7 fold” and the IC50 [1] is reported as 10400 ± 900 nM. For the same compound, the “Fold resistance A2780cis/A2780 ratio” value ([1]; ratio of IC50 in A2780cis to IC50 in A2780) was 6.93, the IC50 (MCF-7 cells) was 22200 ± 200 nM and the IC50 (PC3 cells) was 3300 ± 300 nM. The IC50 (L-540 cells) was 2500 ± 100 nM and the “fold cisplatin resistance of 2780CP cells” value [2] was 20 fold.

CN(C)C(=S)[S][Au+2].Cc1ccc(-c2ccc(C)cn2)nc1.[Cl-].[Cl-] [Compound 4] showed an IC50 (A2780 cells) of 280 ± 30 nM, an IC50 [1] of 170 ± 10 nM and an IC50 (MCF-7 cells) of 280 ± 20 nM. For the same compound, the IC50 (PC3 cells) was 590 ± 50 nM, the IC50 (L-540 cells) was 2700 ± 220 nM and the IC50 [3] was 120 to 310 nM. For the same compound, the “potency from dose-response curves in A549 cells” value (A549 cells) was “greater potencies than compounds 3, 6, and 9”, the IC50 [4] was 87 ± 3 nM and the IC50 [5] was 83 ± 3 nM. The “activity compared with cisplatin” value [6] was “generally more effective than cisplatin”.
